Reference: patent US20250011734A1, “DGAT1/2-INDEPENDENT ENZYME SYNTHESIZING STORAGE LIPIDS (DIESL)” (STICHTING HET NEDERLANDS KANKER INSTITUUT-ANTONI VAN …, priority 2021, published 2025)

Tests used:
[1] = system: RPE1 cells; assay: Mitochondrial membrane potential and ATP levels in RPE1 cells lacking DIESL cultured without lipoproteins; type: cell-based
Protocol: For BODIPY 493/503 measurements in fixed HAP1 cells, HAP1 cells, grown in 10 cm plates, were collected by trypsinization and were fixed in Fix Buffer I (BD Biosciences) for 10 minutes at 37° C. Cells were pelleted, washed with FACS buffer (10% FBS in PBS), resuspended in FACS buffer and counted. 10 million cells were stained with 1 μg/ml BODIPY 493/503 and 5 μg/ml DAPI (Invitrogen), diluted in FACS buffer, for one hour at room temperature. Cells were washed once in FACS buffer, then passed through a 35 μm nylon mesh cell strainer into a FACS tube. Fluorescence was analyzed on an LSR Fortessa (BD Biosciences) analytical flow cytometer, using 405 and 488 nm lasers to detect DAPI and BODIPY 493/503, respectively. Data were analyzed using FlowJo (BD Life Sciences). Fluorescence plots represent the fluorescent signal measured in single haploid G1 cells, as determined by DAPI fluorescence intensity. […] Fluorescence (using a 561 nm laser) and data were analyzed as above. Fluorescence plots represent the fluorescent signal measured in single cells. Membrane potential was calculated by subtracting the fluorescence mean of depolarized (CCCP-treated) cells. RPE1 cells were plated in 96-well plates and ATP levels were measured using CellTitre-Glo (Promega) according to the manufacturer's instructions. […]

[2] = target: T1, 3xHA-tagged DIESL (human TMEM68, DGAT1/2-Independent Enzyme Synthesizing Storage Lipids) (human, UniProt Q96MH6 1-324, N-glycosylation at its N-terminus (N-X-S/T motif; N5Q mutant served as negative control)); assay: summary of the examples (crosslinking and co-immunoprecipitation)
T1 construct: It is an ER membrane protein and was assayed in cells or cell lysates; also called 3xHA-DIESL; transmembrane protein 68; not shown: the N-terminal position is inferred only from the name 3xH
T1 sequence: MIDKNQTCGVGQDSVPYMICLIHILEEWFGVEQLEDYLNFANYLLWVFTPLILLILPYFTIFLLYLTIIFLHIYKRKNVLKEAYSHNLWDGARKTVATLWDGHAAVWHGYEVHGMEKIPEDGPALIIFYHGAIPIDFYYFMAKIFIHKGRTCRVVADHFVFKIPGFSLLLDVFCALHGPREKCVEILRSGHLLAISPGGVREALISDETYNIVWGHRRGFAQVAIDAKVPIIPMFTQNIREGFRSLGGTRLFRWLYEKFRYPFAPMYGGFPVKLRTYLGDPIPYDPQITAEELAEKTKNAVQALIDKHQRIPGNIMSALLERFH
Protocol: HAP1 ΔDIESL and ATMX1ΔDIESL cells reconstituted with 3xHA-DIESL, or HeLa WT cells expressing 3xHA-DIESL, were washed with PBS and incubated in 1% paraformaldehyde for 20 minutes at room temperature. Cross-linking reactions were quenched by incubation in 0.2 M glycine for 10 minutes. Cells were then lysed in RIPA buffer on ice as described above, sonicated and protein concentrations were determined. Samples were separated by SDS-PAGE and immunoblotted as described above.
HAP1 ΔDIESL cells reconstituted with 3xHA-DIESL, grown to confluence in a 6-well plate, were lysed in 400 μl IP buffer (25 mM HEPES PH 7.0, 150 mM NaCl, 1% detergent [Tween-20 unless otherwise indicated], and protease/phosphatase inhibitor cocktails) on ice, sonicated and cleared by centrifugation. 250 μl of lysate was incubated with 10 μl of PBS-washed anti-HA magnetic beads (Pierce) overnight while rotating at 4° C. The following day, beads were washed three times in IP buffer before elution in SDS-PAGE sample buffer at 90° C. for 20 minutes. One-quarter of this eluate (along with the corresponding amount of input sample) were separated by SDS-PAGE and subjected to immunoblot analysis as above.

CCCCCCCC/C=C\CCCCCCCC(=O)O [oleic acid]
Rescue of decreased mitochondrial membrane potential and ATP levels ([1]; DIESL-deficient RPE1 cells, lipoprotein-deficient medium supplemented with 50 µM oleic acid for 24 hours, FIG. 19F): rescued

CCOC(=O)[C@@]1(CCCCCCOc2ccc(Cl)cc2)CO1 [etomoxir]
Effect of CPT1A inhibition on the oleic acid rescue ([1]; DIESL-deficient RPE1 cells without lipoproteins plus oleic acid, data not shown): sensitive

B1: Thioredoxin related transmembrane protein 1 (TMX1), human, endogenous in HAP1 / HeLa cells (enzyme)
chain: RRSNVRVITDENWRELLEGDWMIEFYAPWCPACQNLQPEWESFAEWGEDLEVNIAKVDVTEQPGLSGRFIITALPTIYHCKDGEFRRYQGPRTKKDFINFISDKEWKSIEPVSSWFGPGSVLMSSMSALFQLSMWIRTCHNYFIEDLGLPVWGSYTVFALATLFSGLLLGLCMIFVADCLCPSKRRRPQPYPYPSKKLLSESAQPLKKVEEEQEADEEDVSEEEAESKEGTNKDFPQNAIRQRSLGPSLATDKS
notes: Endogenous TMX1 of human cell lines (HAP1, HeLa), an ER membrane protein, detected with anti-TMX1 antibodies; also called transmembrane thioredoxin 1; TMX1 polypeptide
binding result [2]: binds
